Data: US20260131020A1, “IONIZABLE CATIONIC LIPID FOR RNA DELIVERY” (Arcturus Therapeutics, Inc., priority 2016, published 2026)

Tests used:
epo protein = assay: In vivo epo protein expression after delivery of lipid encapsulated mouse epo mRNA (epo ELISA); parameters: species or system Female Balb/c mice; settings: mouse epo mRNA nanoparticles, i.v. tail vein, at 0.1 mg/kg (so in the source), serum at 6 hours; FIG. 16
Experimental: Female Balb/c mice (6-8 week old) were used for evaluation of epo protein expression in vivo following delivery of lipid encapsulated mouse epo mRNA. All formulations were administered intravenously via tail vein injection at a dose of 0.03 and 0.1 mg/kg at a dosing volume of 5 mL/kg. Terminal blood collection was performed via cardiac puncture under 2% isoflurane at 6 hours after formulation injections. Blood was collected into 0.109 M citrate buffer tube and processed by centrifugation at 5000 rpm for 10 minutes. Serum was collected and epo protein levels were analyzed by epo ELISA assay (R&D systems). A standard curve was constructed using samples from PBS-injected mice and relative epo expression was determined by comparing treated groups to untreated PBS control.

mouse epo mRNA = assay: In vivo EPO mRNA stability: epo mRNA levels after injection of lipid encapsulated mouse epo mRNA; parameters: species or system Female Balb/c mice; settings: nanoparticles with the cationic lipid, i.v. tail vein, 0.03 and 0.1 mg/kg mRNA, blood at 6 hours; FIG. 14
Experimental: Levels of mRNA in plasma were measured and compared following injection of nanoparticles comprising different cationic lipids. Female Balb/c mice (6-8 week old) were used for evaluation of plasma erythropoietin (epo) levels in vivo following injection of lipid encapsulated mouse epo mRNA. All formulations were administered intravenously via tail vein injection at a dose of 0.03 and 0.1 mg/kg at a dosing volume of 5 ml/kg. Terminal blood collection was performed via cardiac puncture under 2% isoflurane at 6 hours after formulation injections. Blood was collected into 0.109 M citrate buffer tube and processed by centrifugation at 5000 rpm for 10 minutes. Serum was collected and epo mRNA levels were analyzed. Results are shown at FIG. 14.

Factor VII = assay: In vivo mouse Factor VII siRNA knockdown (chromogenic assay of plasma Factor VII protein); parameters: species or system Female C57BL/6 mice; settings: Factor VII siRNA formulations, i.v. tail vein, both at 0.03 and 0.1 mg/kg, plasma at 48 hours; FIG. 15
Experimental: Using a liver-directed in vivo screen of the liposome libraries, a series of compounds were tested that facilitate high levels of siRNA mediated gene silencing in hepatocytes, the cells comprising the liver parenchyma. Factor VII, a blood clotting factor, is a suitable target gene for assaying functional siRNA delivery to liver. Because this factor is produced specifically in hepatocytes, gene silencing indicates successful delivery to parenchyma, as opposed to delivery to the cells of the reticulo-endothelial system (e.g., Kupffer cells). Furthermore, Factor VII is a secreted protein that can be readily measured in serum, obviating the need to euthanize animals. Silencing at the mRNA level can be readily determined by measuring levels of protein. This is because the protein's short half-life (2-5 hour). Compositions with siRNA directed to Factor VII were formulated with ATX-002, ATX-57, and ATX-58, and comparator sample phosphate-buffered saline (PBS). Female C57BL/6 mice (6-8 week old) were used for FVII siRNA knockdown (KD) experiments. […] Plasma was collected and Factor VII protein levels were analyzed by chromogenic assay (Biophen FVII, Aniara Corporation). A standard curve was constructed using samples from PBS-injected mice and relative Factor VII expression was determined by comparing treated groups to untreated PBS control.

[1] = Titration of lipids to measure pKa; assay type: physicochemical; settings: lipids titrated
Source text: The lipids were titrated to measure their pKa values.

Compound | epo expression compared with ATX-2 (epo protein) | epo mRNA levels compared with ATX-2 (mouse epo mRNA) | Factor VII knockdown activity compared with ATX-002 (Factor VII) | pKa [1]
CCCCCC/C=C\COC(=O)CCCN(CCCC(=O)OC(CCCCCCC)CCCCCCCC)C(=O)SCCN(C)C (centres unmarked) [ATX-57] | substantially higher amounts | substantial improvement over ATX-2 | substantially more effective than ATX-002 | 6
CCCCCC/C=C\COC(=O)CCCN(CCCC(=O)OC(CCCCCC)CCCCCCC)C(=O)SCCN(C)C (centres unmarked) [ATX-58] |  |  | substantially more effective than ATX-002 | 6.1
CCCCCC/C=C\COC(=O)CCCN(CCCC(=O)OC(CCCCCCC)CCCCCCC)C(=O)SCCN(C)C [ATX-81] |  | substantial improvement over ATX-2 |  | 5.9
CCCCCC/C=C\COC(=O)CCCCCN(CCC(=O)OC(CCCCCCC)CCCCCCC)C(=O)SCCN(C)C [ATX-82] |  | substantial improvement over ATX-2 |  | 
CCCCCC/C=C\COC(=O)CCCCCN(CCCC(=O)OC(CCCCCCC)CCCCCCC)C(=O)SCCN(C)C [ATX-83] |  | substantial improvement over ATX-2 |  | 
CCCCCC/C=C\COC(=O)CCCCCN(CCCC(=O)OC(CCCCCC)CCCCCC)C(=O)SCCN(C)C [ATX-84] |  | substantial improvement over ATX-2 |  | 6.1
CCCCCC/C=C\COC(=O)CCCN(CCCC(=O)OC(CCCCCC)CCCCCC)C(=O)SCCN(C)C [ATX-86] |  | substantial improvement over ATX-2 |  | 
CCCCCC/C=C\COC(=O)CCCN(CCCC(=O)OC(CCCCCCCC)CCCCCCCC)C(=O)SCCN(C)C [ATX-87] |  | substantial improvement over ATX-2 |  | 
